# According to patent US20230331679A1, “NAPHTHALENE MONOIMIDE COMPOUNDS AND METHODS THEREOF” (JAWAHARLAL NEHRU CENTRE FOR ADVANCED SCIENTIFIC RESEARCH, priority 2020, published 2023):
# Key:
# [1] = MALDI mass analysis of brain lysate (BBB crossing); format: in vivo; conditions: WT mice, brains collected after 1 h
# Procedure: (§1) Pharmacokinetics of TGR63 in wild-type (WT) mice was performed to assess its in vivo efficacy. The lethal dose 50 (LD50) of TGR63 was determined in WT mice through intraperitoneal (IP) injection following the Organisation for Economic Cooperation and Development (OECD) guidelines. […] FIG. 7A illustrates the calculation of lethal dose 50% (LD50) of TGR63 through intraperitoneal administration and is represented as table of experimental details and the final observation was done on 14th day. FIG. 7B illustrates the mortality (%) plotted against TGR63 concentration and calculation of LD50. Twenty-five WT mice were segregated in five different groups (G1-5, N= 5 per group) and administered with varying doses of TGR63 (1.7, 5.5, 17.5 56.0 and 179.0 mg/kg body weight, respectively) through IP injection and their survival was monitored for 14 days. The serum stability and blood-brain barrier (BBB) crossing ability of TGR63 were assessed through matrix-assisted laser desorption ionization (MALDI) mass spectrometry analysis of blood and brain samples of vehicle and TGR63 treated mice. […] The partition coefficient (P), a valuable physical property was calculated to predict the BBB permeability. […] The calculated positive logP value predicts the possible BBB crossing ability for TGR63. […]
# [2] = tested on: APP/PS1 and WT mice; test: Morris water maze (MWM) test; format: in vivo
# Procedure: The spatial and episodic memory formation under AD conditions were investigated through spatial learning and memory development tasks in MWM test. MWM test was performed in a water pool (radius: 70 cm) and experimental mice were trained four times in a day to find a hidden platform, which was removed in probe trial to assess the spatial memory. The latency time to reach the hidden platform during the training period was recorded to determine spatial learning (FIG. 16H). […] In the probe trial, AD vehicle cohort spent most of the time (~87% of total time) in other quadrants (without platform), while other cohorts (WT vehicle, WT TGR63 and AD TGR63) spent only ~67%, 58% and 66% of total time in without platform quadrants, respectively. The AD vehicle cohort spent minimum time (~13% of total time) in target quadrant (with platform) compared to WT vehicle cohort (~33% of total time). […] Remarkably, AD TGR63 cohort crossed the platform region ~4 times, which is greater than the AD vehicle cohort.
# [3] = molecular target: T1, Aβ42 fibrils (Homo sapiens, UniProt P05067); test: TEM visualization of Aβ42 aggregation species; format: biochemical; conditions: 10 µM Aβ42, 50 µM TGR63, 48 h
# T1 construct: commercially available β-amyloid peptide (1-42), human; purchased marck (so in the source) PP69-.025 mg
# T1 sequence (P05067 672-713 limits assumed): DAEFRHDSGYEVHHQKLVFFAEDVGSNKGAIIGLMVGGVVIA
# Procedure: To visualize the amyloid fibrils, the 10 µM of Aβ42 peptides were incubated alone, and in combination with 50 µM TGR63 for 48 h and spotted on mica surface and TEM grid to acquire the TEM images. FIG. 4(a) and FIG. 4(b) show the TEM images of Aβ42 aggregation species in the absence and presence of TGR63 respectively.
# [4] = MALDI mass analysis of blood serum after administration; format: in vivo; conditions: WT mice, 24 h after administration
# Procedure: as §1
# [5] = molecular target: T1, Aβ42 fibrils; test: Dot blot analysis of Aβ42 fibrils with OC antibody; format: biochemical
# Procedure: The inhibition ability of TGR63 was further supported through dot blot ([…]) analysis which was used to evaluate the amount of Aβ42 fibrils. 10 µM of freshly prepared Aβ42 sample was incubated with TGR63 and alone independently for 48 h without shaking. The incubated samples were dotted on the PVDF membrane and allowed to dry. The PVDF membranes were blocked using 5% skimmed milk in PBS for 1 h at room temperature. The blots were washed (3 times) with 1% of Tween 20 containing PBS (PBST) for 10 min and incubated with OC (1:1000) primary antibody, specific to Aβ42 fibrils at 4° C. for 16 h. Then the unbound primary antibody was removed by PBST wash (3 times) and incubated with HRP conjugated anti-rabbit secondary antibody (Biorad, 1706515), which was diluted 10000 times. Further, nonspecific binding was removed with PBST wash and the blots were developed (chemiluminescent) and analyzed using BioRad ECL kit. […] Quantification of Aβ42 fibrils was done by firstly incubating 10 µM of Aβ42 peptide samples for 48 h at 37° C. The incubated samples were then spotted on a PVDF membrane and probed with OC (fibril specific, 1:1000) antibody to measure the amount of Aβ fibrils.
# [6] = tested on: PC12 cells; test: Rescue of PC12 cells from Aβ42 toxicity (MTT cell viability assay); conditions: PC12 cells, Aβ42 20 µM + compound 40 µM, 24 h; Aβ42 alone 54%, untreated 100%
# Procedure: A 96-well plate was used to culture the cells (15,000 per well) with RPMI media (10% fetal bovine serum (FBS), 5% horse serum (HS,), and 1% pen-strep (PS)) at 37° C. temperature in a 5% CO2 atmosphere. Then the media was exchanged with low serum (2% FBS) media and monomeric Aβ42 was added in the absence and presence of NMI compounds and incubated for 24 h.
# The structure-activity relationship (SAR) of NMI compounds towards rescuing PC12 cells from Aβ toxicity was investigated. […] Each experiment was repeated three times (n = 3), and error bars represent the standard deviation (SD).
# An Alzheimer’s disease-like environment was mimicked by exposing the cultured PC12 cells to 20 µM of Aβ42 fibrils, which formed cytotoxic aggregation species in the growth media.
smiles,measurement,setting,value
"CN(C)c1ccc(C#Cc2ccc3c4c(cccc24)C(=O)N(CC[N+](C)(C)C)C3=O)cc1 [TGR63, 2-(6-((4-(dimethylamino)phenyl)ethynyl)-1,3-dioxo-1H-benzo[de]isoquinolin-2(3H)-yl)-N,N,N-trimethylethan-1-aminium]",BBB crossing ability (MALDI of brain lysate),[1],confirmed BBB crossing ability of TGR63
same,exploration in target quadrant relative to AD vehicle cohort,"[2]; AD TGR63 cohort, probe trial",< 20%
same,spatial memory formation (latency to hidden platform during training),"[2]; AD TGR63 cohort, training days",significant improvement in spatial memory formation compared to AD vehicle cohort
same,"platform region crossings, probe trial","[2]; AD TGR63 cohort, AD vehicle ~1 time, WT vehicle ~4 times",~ 4 times
same,"exploration in target quadrant, probe trial","[2]; AD TGR63 cohort, AD vehicle ~13%",~ 34 % of total time
same,"time in without platform quadrants, probe trial","[2]; AD TGR63 cohort, AD vehicle ~87%",~66 % of total time
same,"exploration in target quadrant, probe trial","[2]; WT TGR63 cohort, WT vehicle ~33%",< 35 % of total time
same,"time in without platform quadrants, probe trial","[2]; WT TGR63 cohort, WT vehicle ~67%",~58 % of total time
same,intertwined structure of Aβ42 fibrils (TEM),[3],disrupted
same,presence in blood (MALDI),[4],confirmed the presence of TGR63 in blood after 24 h of administration
same,Aβ42 aggregates (quantification of dot blot),"[5]; L2, 10 µM TGR63, 10 µM Aβ42, 48 h at 37° C.",~ 90%
same,amount of Aβ42 fibrils decreased (blot image; Aβ42 alone 100%),"[5]; L3, 50 µM TGR63, 10 µM Aβ42, 48 h",~ 50%
same,Aβ42 aggregates (quantification of dot blot),"[5]; L3, 50 µM TGR63, 10 µM Aβ42, 48 h at 37° C.",~ 40%
same,cell viability,[6],80%
